Results published in patent US4091213A, “7-Cyclizedamino-3-heterothiomethyl cephalosporin derivatives” (Bristol-Myers Company, priority 1977, dated 1978).

What was measured:
[1] = Paper chromatograms of rat urine following IM administration, antibiotically active metabolites; format: in vivo; conditions: urine 0-2 and 2-4 hours; for antibiotically active metabolites in urine (spots on paper chromatogram): system No. 9 (butyl acetate:n-butanol:glacial acetic acid:H2O)
Procedure: Paper chromatograms were run on rat urine collected between 0 and 2 and between 2 and 4 hours following IM administration of BL-S1057, 1058 and 643, for the detection of antibiotically active metabolites using descending chromatography with system No. 9 (butyl acetate:n-butanol:glacial acetic acid:H2 O = 80:15:40:24).

[2] = Paper strip chromatography; format: physicochemical; conditions: 37° C.; 0 and 1 hour; 0.2 mg./ml.
[3] = Liquid chromatography, hydrolysis in buffer; format: physicochemical; conditions: pH 6 buffer; 1 mg./ml.; 0 hours
Procedure: f. Liquid chromatography = 100% hydrolyzed in pH 6.1 buffer within 1 hour at room temperature (concentration = 1 mg./ml.)
d. Liquid chromatography (1 mg./ml. in pH 6 buffer)

| Structure (SMILES) | antibiotically active metabolites in urine (spots on paper chromatogram) [1] | hydrolysis of the derivatives to the parent compound (BL-S643) [1] | Paper strip chromatography [2] | % Hydrolyzed (liquid chromatography) [3] [%] |
| --- | --- | --- | --- | --- |
| Cc1nnc(SCC2=C(C(=O)O)N3C(=O)C(NC(=O)[C@H](N)c4ccc(O)cc4)C3SC2)s1 (some centres unmarked) [BL-S643, reference compound] | A single, identical spot was observed | – | – | – |
| Cc1nnc(SCC2=C(C(=O)O)N3C(=O)C(N4C(=O)[C@@H](c5ccc(O)cc5)NC4c4ccco4)C3SC2)s1 (some centres unmarked) [BL-S1057] | A single, identical spot was observed | complete hydrolysis | Primarily 1 zone at Rf of BL-S643 | – |
| Cc1nnc(SCC2=C(C(=O)O)N3C(=O)C(N4C(=O)[C@@H](c5ccc(O)cc5)NC4c4ccc(S(=O)(=O)O)o4)C3SC2)s1 (some centres unmarked) [BL-S1058] | A single, identical spot was observed | complete hydrolysis | Primarily 1 zone at Rf of BL-S643 at 0 and 1 hour at 37 °C (concentration is 0.2 mg./ml.) There is evidence of a second zone | 25.4 |
